“Also recorded” adds a separate entry of the source. Read-outs that look alike come from different tables or passages of the source.
Key:
[1] = test system: Pentylenetetrazol-induced seizure; test: Pentylenetetrazol-induced seizure (anticonvulsant action); type: in vivo; details: rats, oral, ester 600 mg/kg, acid 100 mg/kg, pentylenetetrazol 125 mg/kg i.p.
Method: The results of trials performed with such di-n-propylacetyl derivatives in order to determine the anticonvulsant action are set out below.
The anticonvulsant action was determined using pentylenetetrazol as convulsant agent.
Batches of 10 rats were treated by oral route with a dose of 600 mg/kg of glyceryl 1-(di-n-propylacetate).
At various times after administration, the animals received an intraperitoneal dose of 125 mg/kg of pentylenetetrazol.
The percentage of protection against the convulsive seizure was then determined at each of the times in question.
A similar trial was carried out with 100 mg/kg of di-n-propylacetic acid.
This dose represents the amount of di-n-propylacetic acid required to provide a di-n-propylacetic acid blood-level equivalent to the maximum level obtained with 600 mg/kg of glyceryl 1-(di-n-propylacetate). The results obtained are given in the following Table in which are shown the percentage of protection achieved at the various times indicated: […]

[2] = set-up: species or system humans; details: in vivo
Method: FIG. 8: represents blood-levels in di-n-propylacetic acid obtained from:
(a) An oral dose of 600 mg of glyceryl 1-(di-n-propylacetate) (Curve 1)
(b) An oral dose of 476 mg of glyceryl 1,2-bis-(-di-n-propylacetate) (Curve 2)
(c) An oral dose of 460 mg of sodium di-n-propylacetate (Curve 3)
FIG. 9: represents the blood-levels in di-n-propylacetic acid obtained from the oral administration of 1000 mg of glyceryl 1,2-bis-(di-n-propylacetate) every 24 hours for 4 days.
FIG. 10: represents the blood-levels in di-n-propylacetic acid obtained from:
(a) An oral dose of 1000 mg of mixtures of glyceryl 1,2-bis-(di-n-propylacetate)/glyceryl 1,3-bis-(di-n-propylacetate)
("Mixtures A and B" referred to above) (Curves 1 to 5)
(b) An oral dose of 1000 mg of sodium di-n-propylacetate (Curve 6)
FIG. 11: represents the blood-levels in di-n-propylacetic acid obtained from an oral dose of 1000 mg of 1,2-propanediol bis-(di-n-propylacetate).

rats = test: Acute toxicity tests in rats; details: rat, in vivo
From the text: (§1) The results of acute toxicity tests obtained with compounds of the invention are given below:

[3] = Pharmacokinetic trials with animals (species not specified), release of parent acid; type: in vivo, animal
[4] = set-up: species or system rats; details: rat, in vivo, po, 600 mg/kg
Method: The first series of drawings represent blood-levels in acid of formula I above in relation to time, this acid being either released from a salt thereof or from an ester of the invention.
FIG. 1: represents blood-levels in di-n-propylacetic acid obtained from:
(a) An oral dose to rats of 600 mg/kg of either: glyceryl 1-(di-n-propylacetate) (Curve 1) or glyceryl 1,2-bis-(di-n-propylacetate) (Curve 2) or glyceryl 1,3-bis-(di-n-propylacetate) (Curve 3)
(b) An intravenous dose to rats of 200 mg/kg of sodium di-n-propylacetate (Curve 4) […] FIG. 6: represents blood-levels in di-n-propylacetic acid obtained from: […]
(b) An intravenous dose to rats of 200 mg/kg of sodium di-n-propylacetate (Curve 3) FIG. 7: represents blood-levels in di-n-propylacetic acid obtained from:
1,4-butanediol bis-(di-n-propylacetate) (Curve 1) or 2-buten-1,4-diol bis-(di-n-propylacetate) (cis isomer) (Curve 2) or 2-butyn-1,4-diol bis-(di-n-propylacetate) (Curve 3)

[5] = Acute toxicity tests in rats; details: rat, in vivo; rats, oral route
From the text: as §1

[6] = Acute toxicity tests in mice; details: mouse, in vivo, oral route
[7] = in vivo; cited from earlier work
[8] = test system: Chronic cobalt-induced epilepsy; test: Chronic cobalt-induced epilepsy; type: in vivo, rats; details: 14 days i.p., sodium salt 2 x 200 mg/kg daily, Mixture A 400 mg/kg daily
Method: This trial was performed in comparison with sodium di-n-propylacetate. Batches of rats were given for 14 days either two daily intraperitoneal doses of 200 mg/kg (morning and evening) of sodium di-n-propylacetate or a daily intraperitoneal dose of 400 mg/kg (evening) of a mixture of glyceryl 1,2- and 1,3-bis-(di-n-propylacetates) ("Mixture A").

Structure (SMILES) | percentage of protection against the convulsive seizure ([1]; 0.5 h) [%] | percentage of protection against the convulsive seizure ([1]; 1 h) [%] | percentage of protection against the convulsive seizure ([1]; 2 h) [%] | percentage of protection against the convulsive seizure ([1]; 4 h) [%] | percentage of protection against the convulsive seizure ([1]; 8 h) [%] | percentage of protection against the convulsive seizure ([1]; 16 h) [%] | slow-release of di-n-propylacetic acid in the human body ([2]; po) | release of di-n-propylacetic acid in the animal organism [3] | LD50 [5] [mg/kg] | LD50 [6] [mg/kg] | also measured
CCCC(CCC)C(=O)O [di-n-propylacetic acid, reference compound] | 23 | 0 | 0 | 0 | 0 | 0 |  |  |  |  | 
CCCC(CCC)C(=O)OCC(CO)OC(=O)C(CCC)CCC (stereo not shown) [glyceryl 1,2-bis-(di-n-propylacetate), Glyceryl 1,2-bis-(di-n-propylacetate)] |  |  |  |  |  |  | can provide the slow-release of di-n-propylacetic acid in the human body to a degree which enables therapeutic blood-levels in this acid to be attained | possess the requisite qualities to enable di-n-propylacetic acid to be released in the animal organism at a decreasing rate |  |  | LD0 (rats; ip): > 2000 mg/kg; LD0 (rats; po): > 5000 mg/kg
CCCC(CCC)C(=O)OCC(O)COC(=O)C(CCC)CCC [glyceryl 1,3-bis-(di-n-propylacetate), Glyceryl 1,3-bis-(di-n-propylacetate)] |  |  |  |  |  |  | can provide the slow-release of di-n-propylacetic acid in the human body to a degree which enables therapeutic blood-levels in this acid to be attained | possess the requisite qualities to enable di-n-propylacetic acid to be released in the animal organism at a decreasing rate |  |  | bioavailability compared with the 1,2-diester [2]: better bioavailability than that of the corresponding 1,2-diester; blood-levels in di-n-propylacetic acid compared with the 1,2-diester [2]: Very similar results
CCCC(CCC)C(=O)OCC(O)CO (stereo not shown) [glyceryl 1-(di-n-propylacetate), Glyceryl 1-(di-n-propylacetate)] | 29 | 56 | 41 | 43 | 35 | 22 | quite unable to induce a slow-release in di-n-propylacetic acid in the blood | possess the requisite qualities to enable di-n-propylacetic acid to be released in the animal organism at a decreasing rate | 2360 | 3360 | blood-levels in di-n-propylacetic acid (FIG. 1) [4]: resists the rapid elimination of this acid and maintains a high blood-level in this acid; metabolism to glycerol and di-n-propylacetic acid [2]: too rapid
CCCC(CCC)C(=O)OCC(COC(=O)C(CCC)CCC)OC(=O)C(CCC)CCC [glyceryl tri-(di-n-propylacetate)] |  |  |  |  |  |  |  |  |  |  | bioavailability [4]: poor bioavailability; maximum blood-levels in di-n-propylacetic acid [4]: ≤ 10 µg/mL; time until di-n-propylacetic acid appeared in the blood [4]: ≥ 150 min; value as a slow-release form of di-n-propylacetic acid [4]: of no value as a slow-release form of di-n-propylacetic acid; slow-release properties as reported in the literature [7]: a remarkably useful substance which has all the properties expected of a slow-release preparation; also recorded: can act as a slow-release form of di-n-propylacetic acid; bioavailability ([2]; po): poor bioavailability
CCCC(CCC)C(=O)[O-].[Na+] [sodium di-n-propylacetate, reference compound] |  |  |  |  |  |  |  |  | 1530 | 1700 | apparent half-life of di-n-propylacetic acid ([2]; human, po): 11 h 35 min h min; Number of seizures between the 7th and 14th day ([8]; controls 3.57): 1.25; Number of rats presenting at least one seizure ([8]; controls 7/7): 3/4

From patent US4423071A, “Polyol derivatives, processes for preparing the same and their uses in therapeutics” (Sanofi, priority 1979, dated 1983)
